# Source: patent publication US20240284907A1, “NOVEL DERIVATIVES OF NON-CODED AMINO ACIDS AND THEIR USE AS HERBICIDES” (FortePhest LTD., priority 2021, published 2024)
# System: Seeds of Lettuce R. (Super-Jericho)
# Experiment: Filter paper bioassay with lettuce seeds: germination and early plant development, Minimal Effective Concentration (MEC)
# Type: in vivo
# Conditions: lettuce seeds on filter paper, 0 to 1 mmol/l, visually assessed after 6 days
# Excerpt: Materials: Seeds of Lettuce R. (Super-Jericho, non-sterilized) were obtained from Ben Shahar Moshe Ltd., 99% purity. The test compounds listed in the Table 2 below were synthetized de novo or purchased from different vendors.
# Filter Paper Bioassays with Lettuce seeds: The protocol is following Bertin et al. 2009 and Movellan et al. 2014 with specified modifications as described below.
# Seeds were placed on Whatman no. 1 filter paper (Whatman, Middlesex, U.K.) in Petri dishes (10 seeds per plate) with 2.0 ml of aqueous solution of a test material in concentration ranged from 0 (control) to 1 mmol/l were placed in a tray tilted at 45[…]. The trays were kept in dark for 48 hours and then transferred to the growth chamber with 6/18 dark/light cycle for 4 days. Each experiment was performed at least with two repeats.
# The development of plants' radicle and shoots were visually assessed 6 days after the beginning of the test to determine Minimal Effective Concentration (MEC) of a test material. In the context of the invention, MEC is defined as the lowest concentration level of a test material that caused deviation (absence of germination or malformation of radicle or shoots) from the plant's development in the Control group.
row,Compound,"Score (activity score of Minimal Effective Concentration, MEC)"
1,"CCOC(=O)C(Br)c1nc(Br)sc1C (centres unmarked) [compound 5662, ethyl 2-bromo-2-(2-bromo-5-methyl-1,3-thiazol-4-yl)acetate]",Moderate (0.1 mM)
2,"2-(4-methylphenyl)-2-oxoethyl(2-chloro-1,3-thiazol-4-yl)acetate [compound 5795]",Moderate (0.1 mM)
3,"Cl.NC(Cc1n[nH]c2ccccc12)C(=O)O (centres unmarked) [compound 599, 2-amino-3-(1H-indazol-3-yl)propanoic acid hydrochloride[HCl]]",Moderate (0.1 mM)
4,"2-(2,6-dichloropyridin-4-yl)-2,2-difluoroacetic acid [compound 6628]",Weak (Higher than 0.1 mM)
5,"O=C(O)C(F)(F)c1nc(F)c(F)cc1F [compound 6660, difluoro(3,5,6-trifluoropyridin-2-yl)acetic acid]",Moderate (0.1 mM)
6,"O=C(O)C(F)(F)c1cccc(-c2ccc(C(F)(F)F)cc2F)n1 [compound 6659, 2,2-difluoro-2-{6-[2-fluoro-4-(trifluoromethyl)phenyl]pyridin-2-yl}acetic acid]",Moderate (0.1 mM)
7,"O=C(O)/C=C/c1ccnc(Br)c1 [compound 6606, (2E)-3-(2-bromopyridin-4-yl)prop-2-enoic acid]",Weak (Higher than 0.1 mM)
8,"O=C(O)C(O)Cc1ccnc(Br)c1 (centres unmarked) [compound 680, 3-(2-bromopyridin-4-yl)-2-hydroxypropanoic acid]",Weak (Higher than 0.1 mM)
9,"Nc1nc(C(F)(F)c2ccccc2)cs1 [compound 5697, 4-[difluoro(phenyl)methyl]-1,3-thiazol-2-amine]",Strong (0.01 mM)
10,"2,2-difluoro-2-[4-(trifluoromethyl)pyrimidin-2-yl]acetic acid [compound 6652]",Moderate (0.1 mM)
11,"BrCCc1ccnc(Br)c1 [compound 690, 2-bromo-4-(2-bromoethyl)pyridine]",Weak (Higher than 0.1 mM)
12,"CC(=O)C1CN(CCc2cc(Cl)sc2Cl)CCC1=O (centres unmarked) [compound 5743, 3-acetyl-1-[2-(2,5-dichlorothiophen-3-yl)ethyl]piperidin-4-one]",Moderate (0.1 mM)
13,"2-carbamimidamido-N-[2-(2,5-dichlorothiophen-3-yl)ethyl]acetamide [compound 5726]",Moderate (0.1 mM)
14,"O=C(O)C(F)(F)c1csc([N+](=O)[O-])n1 [compound 5719, 2,2-difluoro-2-(2-nitro-1,3-thiazol-4-yl)acetic acid]",Moderate (0.1 mM)
15,"2-(2,5-dichlorothiophen-3-yl)-2-oxoacetic acid [compound 5631]",Weak (Higher than 0.1 mM)
16,"2-[2-(2,5-dichlorothiophen-3-yl)ethyl]-1,4,5,6-tetrahydropyrimidin-5-ol [compound 5777]",Weak (Higher than 0.1 mM)
17,"Clc1cc(CCNCc2ccccc2)c(Cl)s1 [compound 5694, benzyl[2-(2,5-dichlorothiophen-3-yl)ethyl]amine]",Moderate (0.1 mM)
18,"O=C(O)CCC(F)(F)c1cc(Cl)sc1Cl [compound 5632, 4-(2,5-dichlorothiophen-3-yl)-4,4-difluorobutanoic acid]",Moderate (0.1 mM)
19,"O=C(NCC(F)(F)C(=O)O)c1cc(Cl)sc1Cl [compound 5605, 3-[(2,5-dichlorothiophen-3-yl)formamido]-2,2-difluoropropanoic acid]",Weak (Higher than 0.1 mM)

row,Compound,"Score (activity score of Minimal Effective Concentration, MEC)"
1,"2,2-difluoro-2-{6-[2-(trifluoromethyl)-1,3-thiazol-4-yl]pyridin-2-yl}acetic acid [compound 6658]",Moderate (0.1 mM)
2,2-(thiophen-3-yl)ethane-1-thiol [compound 5601],Moderate (0.1 mM)
3,"O=C(O)C(F)(F)c1ccncc1 [compound 6614, 2,2-difluoro-2-(pyridin-4-yl)acetic acid]",Weak (Higher than 0.1 mM)
4,"NCc1cc(Cl)sc1Cl [compound 587, 1-(2,5-dichlorothiophen-3-yl)methanamine]",weak
5,"O=C(Cl)c1nc(Cl)sc1Cl [compound 5613, 2,5-dichloro-1,3-thiazole-4-carbonylchloride]",Weak (Higher than 0.1 mM)
6,"O=C(O)/C=C/c1cccc(Cl)n1 [compound 6603, (2E)-3-(6-chloropyridin-2-yl)prop-2-enoic acid]",Weak (Higher than 0.1 mM)
7,"O=C(Nc1ccnc(Br)c1)c1ccnc(Br)c1 [compound 6607, 2-bromo-N-(2-bromopyridin-4-yl)pyridine-4-carboxamide]",Strong (0.01 mM)
8,"O=C(O)/C=C/c1cncs1 [compound 5608, (2E)-3-(1,3-thiazol-5-yl)prop-2-enoic acid]",Weak (Higher than 0.1 mM)
9,(2-bromopyridin-4-yl)(oxo)acetic acid [compound 6626],Moderate (0.1 mM)
10,"2-{2-[3-fluoro-5-(trifluoromethyl)pyridin-2-yl]-1,3-thiazol-4-yl}acetic acid [compound 5770]",Weak (Higher than 0.1 mM)
11,"2-(1H-1,2,4-triazol-5-yl)ethan-1-amine [compound 592]",weak
12,"2-(2,6-dibromopyridin-4-yl)ethan-1-amine [compound 6612]",Moderate (0.1 mM)
13,"ethyl 2-(2-amino-5-chloro-1,3-thiazol-4-yl)-2,2-difluoroacetate [compound 5729]",Weak (Higher than 0.1 mM)
14,"O=C(O)C(=O)/C=C/c1cc(Cl)sc1Cl [compound 5620, (3E)-4-(2,5-dichlorothiophen-3-yl)-2-oxobut-3-enoic acid]",Weak (Higher than 0.1 mM)
15,ethyl difluoro[5-(trifluoromethyl)thiophen-3-yl]acetate [compound 5707],Weak (Higher than 0.1 mM)
16,"CS(=O)(=O)NCCNCCc1cc(Cl)sc1Cl [compound 5723, N-(2-{[2-(2,5-dichlorothiophen-3-yl)ethyl]amino}ethyl)methane sulfonamide]",Strong (0.01 mM)
17,"Cl.N=C(N)c1cccc(Br)n1 [compound 6634, 6-bromopyridine-2-carboximidamide hydrochloride[HCl]]",Weak (Higher than 0.1 mM)
18,"O=C(O)Cc1ccc(Oc2ccncc2)cc1 [compound 6615, 2-[4-(pyridin-4-yloxy)phenyl]acetic acid]",Weak (Higher than 0.1 mM)
19,"3-(thiophen-3-yl)propane-1,2-diol [compound 5604]",Moderate (0.1 mM)
